Tested on: RPE1 cells
Assay: Cell death after passing a constriction in micro-channels, with DNA repair inhibited by ATMi
Format: cell-based
Conditions: ATMi 10 μM
Procedure: Micro-channels were prepared as previously described (Heuzé M L et al, 2011, 769, pp. 415-434). Briefly, polydimethylsiloxane (PDMS) (GE Silicones) was used to prepare 7 μm wide and 5 μm high micro-channels with constrictions of varying lengths and widths from a self-made mold. For HeLa cells, larger channels of 12 μm width and 5 μm height were used because of their larger nuclei. Channels with constrictions were incubated with 15 μg/mL of fibronectin for 30 min then washed with PBS at least 3 times and finally incubated with medium (containing drugs if necessary) for at least 5 hours before adding cells. Not that the height inside constriction varied depending on the width: height was 2 μm for 1.5 μm wide constrictions, 3.5 μm for 2 μm wide constrictions, 4 μm for 3 μm and 4 μm wide constrictions, and 5 μm for 5 μm wide constrictions.
siRNA 5′-AAAGCAUGGACGAUCAGGAAG-3′ (SEQ ID NO: 6) was used to deplete CHMP3 (Jimenez Science 2014), SMARTpool for SUN1 and SUN2 (Dharmacon, GE LifeSciences), both 5′-GGUGGUGACGAUCUGGGCU-3′ (SEQ ID NO: 7); and 5′-[…]-3′(SEQ ID NO: 8) to target LMNA. Non-targeting siRNA (Dharmacon, GE Life Technologies) was used as the control. siRNA was transfected with Lipofectamine RNAiMAX (Invitrogen). Cells were transfected with 120 nM siRNA 48 h and again 24 h before the experiment.
For immunofluorescence, secondary antibodies anti-mouse-Alexa488 and anti-Goat-Alexa488 (Jackson ImmunoResearch Laboratories) were used. ATMi (KU-55933, TOCRIS) was used at 10 μM to inhibit DNA repair.
The inventors hypothesized that efficient resealing was responsible for the high survival rate of cells passing through constrictions. The inventors thus quantified the occurrence of cell death after passage through a single constriction in RPE1 cells either depleted for LMNA/C, or for CHMP3. As expected from previous work by others, the inventors found a dramatic increase in death in LMNA/C-depleted cells (FIG. 4A), even inside straight channels, but stronger when cells were passing constrictions where the NE ruptured for longer periods of time.
The inventors therefore hypothesized that the cell death observed upon migration through constrictions in LMNA/C-depleted cells could be caused by a defect in DNA repair combined with a high degree of DNA damage due to prolonged nuclear envelope opening. To test this hypothesis, the inventors inhibited DNA repair using an ATM inhibitor (ATMi, Fig S4E; 22), in control cells and in cells depleted for LMNA/C, or CHMP3.

Question: Which results are given for `O=c1cc(-c2cccc3c2Sc2ccccc2S3)oc(N2CCOCC2)c1` [ATMi, KU-55933]?
Answer: level of cell death (CHMP3-depleted RPE1 cells migrating through constrictions): about 30%; level of cell death (CHMP3-depleted RPE1 cells that did not migrate through constrictions): no effect; level of cell death (LMNA/C-depleted RPE1 cells): further increased; level of cell death (control RPE1 cells): no effect
